Measured values as given in article PMC8781472, “Two Novel Palbociclib-Resorcinol and Palbociclib-Orcinol Cocrystals with Enhanced Solubility and Dissolution Rate” (Pharmaceutics, 2021).

Experiments:
[1] = Accelerated stability testing, analysed by PXRD; format: physicochemical; settings: 40 °C/75% RH for 3 months
Procedure: For the physical stability studies, the powder samples of the cocrystals were exposed to accelerated condition (YSEI, China) with 40 °C/75% RH for three months; subsequently, the samples were analyzed by PXRD.

[2] = Intrinsic dissolution rate (IDR) experiments; format: physicochemical; settings: for Dissolution rate compared with PAL: hydrochloric acid solution pH 1.0; for Increase of dissolution rate compared with PAL: phosphate buffer pH 6.8
Procedure: In the IDR experiment, one side of the compact was sealed with melted wax, and the other side was not covered to contact with the solution. The temperature was set to 37 ℃, the paddle speed was 100 rpm, the samples were collected at the corresponding time points (phosphate buffer pH 6.8: 60, 120, 180, 240, 300, 360 min; acetic acid buffer pH 4.5: 1, 2, 3, 5, 7, 10 min; hydrochloric acid solution pH 1.0: […]) and supplemented with the same volume of culture base. Filtered the supernatant (0.22 μm) to remove undissolved particles. The PAL concentration was measured by an LC-20AD HPLC system (Shimadzu, Kyoto, Japan). At 40 °C, an Agilent ZORBAX Eclipse XDB-C18 column (250 mm × 4.6 mm, 5 μm, Agilent, Santa Clara, CA, USA) and a UV detector with a wavelength of 356 nm were used to separate the palbociclib. The mobile phase contained 0.1% acetic acid in methanol and water (80:20, v/v), the flow rate was 0.8 mL/min, and the isocratic elution was 10 min. The results were stated as the average of three replicated experiments.

HUVEC = assay: In vitro cytotoxicity MTT assay; format: cell-based, human; settings: normal HUVEC cell line, 48 h
Procedure: (§1) The human umbilical vein endothelial cell line (HUVEC) was a gift from Prof. F Y Chen (Xiangya Hospital, Changsha, China). The cells were grown in DMEM (Hyclone, Logan, UT, USA) supplied with 10% fetal bovine serum (Hyclone, Logan, UT, USA) and 1% penicillin/streptomycin mixture. Furthermore, all the cells were cultured at a 37 ℃, 5% CO2 humidified incubator. The cytotoxicity activity of compounds PAL, PAL-RES and PAL-ORC for normal HUVEC cell line was assessed via the MTT assay. The cells were cultured at a density of 8000 cells/well in a 96 well plate. Five different concentrations (0, 0.1, 1, 10 and 100 μM) of compounds PAL, PAL-RES and PAL-ORC in DMSO were subsequently added to the wells then incubated under 5% CO2 at 37 °C for 48 h; 50 μL of MTT (2 mg/mL) was added to each well, and the cells were incubated for another 4 h. Next, the liquid in each well was removed, and DMSO (150 μL) was added. The absorbance (OD values) at 490 nm was measured by a microplate reader (Biotek, SYNERGY HTX, VT, USA). Each concentration was tested in triplicate.

[3] = Stress testing (high temperature, high humidity, strong illumination), analysed by PXRD; format: physicochemical; settings: high temperature (60 °C), high humidity (92.5% RH), strong illumination (4500 LX)
Procedure: The cocrystals were subjected to a high temperature (60 °C), high humidity (92.5% RH), and strong illumination (4500 lx) condition respectively for stress testing experiments. The samples were analyzed by PXRD to detect possible solid-state transformation at 0, 5, 10 days.

[4] = Powder dissolution (paddle method); format: physicochemical; settings: for Equilibrium dissolution: powder, 500 mL phosphate buffer pH 6.8, 37 °C, 50 rpm, 50 mg PAL equivalent
Procedure: […] PAL, PAL-RES, and PAL-ORC were ground and passed through a 200 mesh sieve. In total, 50 mg of PAL or a PAL equivalent amount of cocrystal were weighed for the powder dissolution experiment. At 5, 10, 15, 30, 45, 60, 90, 120, 180, 240, 300, 360, 480, 600, 720, 1080, 1440 min, taken out 1 mL of the dissolved sample and […] with an equal volume of fresh medium in order to maintain a constant dissolution system. The PAL concentration was measured using the same method as the IDR part. All the experiments were conducted in triplicate.

[5] = In vitro cytotoxicity MTT assay; format: cell-based, human; settings: human, normal HUVEC cell line
Procedure: as §1

[6] = In vivo pharmacokinetic experiments in rats; design: species or system Sprague−Dawley rats; settings: SD rats, single oral dose equivalent to 5 mg/kg PAL, plasma PAL
Procedure: The PK profiles of PAL, PAL-RES and PAL-ORC were determined in adult male Sprague−Dawley rats (SD rats, 200–250 g), which were commercially obtained from Pizhou Oriental Breeding Co., Ltd. (Xuzhou, China). All the experiments were approved by the Ethics and Experimental Animal Committee of Jiangsu Ocean University (Project identification code: 202100021). The rats were housed in standard cages with constant temperature and humidity, and a 12 h light−dark cycling condition was set. Before the commencement of the studies, all the rats were fasted overnight with free access to water for 12 h. Fifteen animals were randomly assigned to three groups (n = 5/group) and intragastrically administrated with PAL, PAL-RES, and PAL-ORC in 0.5% (w/v) aqueous sodium methyl cellulose solution, respectively. A dose equivalent to 5 mg/kg body weight of PAL was used to conduct the evaluation. After the oral administration, blood collections were performed at designated time points (0.5, 1, 2, 4, 6, 8, 12, 24 and 48 h) using centrifuge tubes containing EDTA-K2. Next, the plasma samples were obtained from the whole blood by centrifuging at 4000 rpm for 10 min. The plasma samples were prepared for HPLC analysis by washing with 300 μL methanol, and the PAL concentration was measured using the same method as described in “2.10. Intrinsic dissolution rate (IDR) experiments”. Moreover, the PK parameters were calculated by Phoenix WinNonlin 6.0 pharmacokinetic software package (Certara, Princeton, NJ, USA).

[7] = design: method as in doi:10.1021/acs.cgd.7b01281; settings: cited from earlier work

Row | Physical stability (PXRD, phase transformation) [1] | Dissolution rate compared with PAL [2] [times] | Increase of dissolution rate compared with PAL [2] | Time physically stable under stress testing conditions [3] | Equilibrium dissolution [4] [%] | Structure (SMILES) | IC50 (HUVEC) [µM] | IC50 at 48 h [5] [µM] | also measured
1 | physically stable | 1.2 | two times | at least 10 days | 49.93 | CC(=O)c1c(C)c2cnc(Nc3ccc(N4CCNCC4)cn3)nc2n(C2CCCC2)c1=O.Cc1cc(O)cc(O)c1 [PAL-ORC] | 0.85 ± 0.13 |  | Intrinsic dissolution rate (slope of fitted IDR line) ([2]; acetate buffer pH 4.5, 37 °C, 100 rpm): 0.53 mg/min/cm^2
2 | physically stable | 1.2 | three times | at least 10 days | 60.22 | CC(=O)c1c(C)c2cnc(Nc3ccc(N4CCNCC4)cn3)nc2n(C2CCCC2)c1=O.Oc1cccc(O)c1 [PAL-RES] | 4.02 ± 0.07 |  | Change of dissolution rate compared with PAL ([2]; acetate buffer pH 4.5): only a slight increase in dissolution rate
3 |  |  |  |  |  | Oc1cccc(O)c1 [RES, Resorcinol] |  | > 100 | 
4 |  |  |  |  | 20.09 | CC(=O)c1c(C)c2cnc(Nc3ccc(N4CCNCC4)cn3)nc2n(C2CCCC2)c1=O [PAL, Palbociclib] |  | 2.4 ± 0.07 | Powder dissolution under acidic conditions ([4]; pH 1.0 or 4.5): dissolves completely at pH 1.0 or 4.5 within five minutes; Vd [6]: 20.48 L/kg; AUC(0-t) ([6]; male, Sprague-Dawley, rat): 2620 ng·h/mL; Cmax ([6]; male, Sprague-Dawley, rat): 347 ng/mL; MRT ([6]; male, Sprague-Dawley, rat): 5.36 h; Tmax ([6]; male, Sprague-Dawley, rat): 4 h; half-life ([6]; male, Sprague-Dawley, rat): 19.9 h
5 |  |  |  |  |  | O=C1CCc2ccc(OCCCCN3CCN(c4cccc(Cl)c4Cl)CC3)cc2N1 [ARI, aripiprazole] |  |  | Maximum aripiprazole concentration [7]: 1.6 mg/L
6 |  |  |  |  |  | Cc1cc(O)cc(O)c1 [ORC, orcinol] |  | > 100 | 
